This test concerns HIV-1 (H9IIIB strain). The experiment in a line: Cell-based HIV infection assay using a reporter (Cell-Based), MT4-GFP cells. The note with it: Human immunodeficiency virus 1, MT4-GFP cells infected with HIV-1 H9IIIB; 50% normal human serum; mean of at least two independent experiments; read-out: Cell-based IP. In short, it runs like this: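 IC50 from 4-parameter dose-response of % viral growth inhibition, using the 48 h/24 h infected-cell ratio scaled between DMSO and a protease/integrase/NNRTI triple-drug control. Assay used MT4 cells with HIV-LTR-GFP reporter, pre-infected 24 h with HIV-1 H9IIIB, in 50% normal human serum.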

With `COC(=O)N[C@H](C(=O)Nc1cccc(F)c1CC[C@H]1CNC[C@H](C)N1S(C)(=O)=O)[C@@H](c1ccc(F)cc1)c1cc(F)cc(F)c1` [Example 99, (βS)-β-(3,5-difluorophenyl)-4-fluoro-N-(3-fluoro-2-{2-[(2S,6S)-6-methyl-1-(methylsulfonyl)piperazin-2-yl]ethyl}phenyl)-Nα-(methoxycarbonyl)-L-phenylalaninamide], the IC50 was 0.016 µM.

Consider `COC(=O)N[C@H](C(=O)Nc1cccc(F)c1CC[C@H]1CNC[C@H](C)N1S(=O)(=O)c1ccccc1)C(c1cccc(F)c1)c1cccc(F)c1` [Example 100, 3-fluoro-N-(3-fluoro-2-{2-[(2S,6S)-6-methyl-1-(phenylsulfonyl)piperazin-2-yl]ethyl}phenyl)-β-(3-fluorophenyl)-Nα-(methoxycarbonyl)-L-phenylalaninamide], for which the IC50 amounted to 0.03 µM.

On to `C[C@H]1CNC[C@H](CCc2c(F)cccc2NC(=O)[C@@H](N)[C@@H](c2ccc(Cl)cc2)c2cccc(F)c2)N1S(=O)(=O)c1ccccc1` [Example 101, (βS)-4-chloro-N-(3-fluoro-2-{2-[(2S,6S)-6-methyl-1-(phenylsulfonyl)piperazin-2-yl]ethyl}phenyl)-β-(3-fluorophenyl)-L-phenylalaninamide], for which the IC50 worked out at 0.024 µM.

Turning to `C[C@H]1CNC[C@H](CCc2c(F)cccc2NC(=O)[C@@H](N)[C@@H](c2ccc(F)cc2)C2CCOCC2)N1S(=O)(=O)c1ccccc1` [Example 102, (βR)-4-fluoro-N-(3-fluoro-2-{2-[(2S,6S)-6-methyl-1-(phenylsulfonyl)piperazin-2-yl]ethyl}phenyl)-β-(tetrahydro-2H-pyran-4-yl)-L-phenylalaninamide], the IC50 stood at 0.019 µM.

On to `COC(=O)N[C@H](C(=O)Nc1cccc(F)c1CC[C@H]1CNC[C@@H](C)N1S(=O)(=O)c1ccccc1)[C@@H](c1ccc(F)cc1)C1CCOCC1` [Example 103, (βR)-4-fluoro-N-(3-fluoro-2-{2-[(2S,6R)-6-methyl-1-(phenylsulfonyl)piperazin-2-yl]ethyl}phenyl)-Nα-(methoxycarbonyl)-β-(tetrahydro-2H-pyran-4-yl)-L-phenylalaninamide], for which the IC50 turned out to be 0.0086 µM.

`C[C@@H]1CNC[C@H](CCc2c(F)cccc2NC(=O)[C@@H](N)[C@@H](c2ccc(F)cc2)C2CCOCC2)N1S(=O)(=O)c1ccccc1` [Example 104, (βR)-4-fluoro-N-(3-fluoro-2-{2-[(2S,6R)-6-methyl-1-(phenylsulfonyl)piperazin-2-yl]ethyl}phenyl)-β-(tetrahydro-2H-pyran-4-yl)-L-phenylalaninamide]: the IC50 is 0.037 µM.

Turning to `C[C@H]1CNC[C@H](CCc2c(F)cncc2NC(=O)[C@@H](N)[C@@H](c2ccc(F)cc2)c2cc(F)cc(F)c2)N1S(=O)(=O)c1ccccc1` [Example 105, (βS)-β-(3,5-difluorophenyl)-4-fluoro-N-(5-fluoro-4-{2-[(2S,6S)-6-methyl-1-(phenylsulfonyl)piperazin-2-yl]ethyl}pyridin-3-yl)-L-phenylalaninamide], the IC50 was 0.019 µM.

In the case of `C[C@H]1CNC[C@H](CCc2c(F)cccc2NC(=O)[C@@H](N)[C@@H](c2ccc(F)cc2)c2cc(F)cc(F)c2)N1S(=O)(=O)c1cccc(F)c1` [Example 106, (βS)-β-(3,5-difluorophenyl)-4-fluoro-N-[3-fluoro-2-(2-{(2S,6S)-1-[(3-fluorophenyl)sulfonyl]-6-methylpiperazin-2-yl}ethyl)phenyl]-L-phenylalaninamide], the IC50 is 0.03 µM.

Take `COC(=O)N[C@H](C(=O)Nc1cccc(F)c1CC[C@H]1CNC[C@H](C)N1S(=O)(=O)c1cccc(F)c1)[C@@H](c1ccc(F)cc1)c1cc(F)cc(F)c1` [Example 107, (βS)-β-(3,5-difluorophenyl)-4-fluoro-N-[3-fluoro-2-(2-{(2S,6S)-1-[(3-fluorophenyl)sulfonyl]-6-methylpiperazin-2-yl}ethyl)phenyl]-Nα-(methoxycarbonyl)-L-phenylalaninamide]: the IC50 was 0.15 µM.

As to `C[C@H]1CNC[C@H](CCc2c(F)cccc2NC(=O)[C@@H](N)[C@@H](c2ccc(Cl)cc2)c2cccc(F)c2)N1S(C)(=O)=O` [Example 108, (βS)-4-chloro-N-(3-fluoro-2-{2-[(2S,6S)-6-methyl-1-(methylsulfonyl)piperazin-2-yl]ethyl}phenyl)-β-(3-fluorophenyl)-L-phenylalaninamide], the IC50 stood at 0.032 µM.

As to `CC(C)[C@H](c1ccc(Cl)cc1)[C@H](N)C(=O)Nc1cccc(F)c1CC[C@H]1CNC[C@H](C)N1S(=O)(=O)c1ccccc1` [Example 109, (βR)-4-chloro-N-(3-fluoro-2-{2-[(2S,6S)-6-methyl-1-(phenylsulfonyl)piperazin-2-yl]ethyl}phenyl)-β-(1-methylethyl)-L-phenylalaninamide], the IC50 stood at 0.065 µM.

Regarding `CC(C)[C@H](c1ccc(Cl)cc1)[C@H](N)C(=O)Nc1cccc(F)c1CC[C@H]1CNC[C@@H](C)N1S(=O)(=O)c1ccccc1` [Example 110, (βR)-4-chloro-N-(3-fluoro-2-{2-[(2S,6R)-6-methyl-1-(phenylsulfonyl)piperazin-2-yl]ethyl}phenyl)-β-(1-methylethyl)-L-phenylalaninamide], the IC50 stood at 0.074 µM.

With `COC(=O)N[C@H](C(=O)Nc1cccc(F)c1CC[C@H]1CNC[C@H](C)N1S(=O)(=O)c1ccccc1)[C@@H](c1ccc(Cl)cc1)C(C)C` [Example 111, (βR)-4-chloro-N-(3-fluoro-2-{2-[(2S,6S)-6-methyl-1-(phenylsulfonyl)piperazin-2-yl]ethyl}phenyl)-Nα-(methoxycarbonyl)-β-(1-methylethyl)-L-phenylalaninamide], the IC50 worked out at 0.034 µM.

As to `COC(=O)N[C@H](C(=O)Nc1cccc(F)c1CC[C@H]1CNC[C@@H](C)N1S(=O)(=O)c1ccccc1)[C@@H](c1ccc(Cl)cc1)C(C)C` [Example 112, (βR)-4-chloro-N-(3-fluoro-2-{2-[(2S,6R)-6-methyl-1-(phenylsulfonyl)piperazin-2-yl]ethyl}phenyl)-Nα-(methoxycarbonyl)-β-(1-methylethyl)-L-phenylalaninamide], the IC50 was 0.019 µM.

As for `C[C@H]1CNC[C@H](CCc2c(F)cncc2NC(=O)[C@@H](N)[C@@H](c2ccc(Cl)cc2)c2cccc(F)c2)N1S(=O)(=O)c1ccccc1` [Example 113, (βS)-β-(4-chlorophenyl)-3-fluoro-N-(5-fluoro-4-{2-[(2S,6S)-6-methyl-1-(phenylsulfonyl)piperazin-2-yl]ethyl}pyridin-3-yl)-L-phenylalaninamide], the IC50 turned out to be 0.025 µM.

With `C[C@H]1CNC[C@H](CCc2c(F)cccc2NC(=O)[C@@H](N)[C@@H](c2ccc(F)cc2)C2CCOCC2)N1S(=O)(=O)C1CC1` [Example 114, (βR)-N-(2-{2-[(2S,6S)-1-(cyclopropylsulfonyl)-6-methylpiperazin-2-yl]ethyl}-3-fluorophenyl)-4-fluoro-β-(tetrahydro-2H-pyran-4-yl)-L-phenylalaninamide], the IC50 stood at 0.1 µM.

For `COC(=O)N[C@H](C(=O)Nc1cccc(F)c1CC[C@H]1CNC[C@H](C)N1S(=O)(=O)C1CC1)[C@@H](c1ccc(F)cc1)C1CCOCC1` [Example 115, (βR)-N-(2-{2-[(2S,6S)-1-(cyclopropylsulfonyl)-6-methylpiperazin-2-yl]ethyl}-3-fluorophenyl)-4-fluoro-Nα-(methoxycarbonyl)-β-(tetrahydro-2H-pyran-4-yl)-L-phenylalaninamide], the IC50 turned out to be 0.045 µM.

With `C[C@@H]1CNC[C@H](CCc2c(F)cccc2NC(=O)[C@@H](N)[C@@H](c2ccc(Cl)cc2)C2CCOCC2)N1S(=O)(=O)c1ccccc1` [Example 116, (βR)-4-chloro-N-(3-fluoro-2-{2-[(2S,6R)-6-methyl-1-(phenylsulfonyl)piperazin-2-yl]ethyl}phenyl)-β-(tetrahydro-2H-pyran-4-yl)-L-phenylalaninamide], the IC50 amounted to 0.024 µM.

Take `COC(=O)N[C@H](C(=O)Nc1cccc(F)c1CC[C@H]1CNC[C@@H](C)N1S(=O)(=O)c1ccccc1)[C@@H](c1ccc(Cl)cc1)C1CCOCC1` [Example 117, (βR)-4-chloro-N-(3-fluoro-2-{2-[(2S,6R)-6-methyl-1-(phenylsulfonyl)piperazin-2-yl]ethyl}phenyl)-Nα-(methoxycarbonyl)-β-(tetrahydro-2H-pyran-4-yl)-L-phenylalaninamide]: the IC50 amounted to 0.0093 µM.

For the compound `COc1ccc([C@H](c2ccc(Cl)cc2)[C@H](N)C(=O)Nc2cccc(F)c2CC[C@H]2CNC[C@H](C)N2S(=O)(=O)c2ccccc2)cn1` [Example 118, (βS)-4-chloro-N-(3-fluoro-2-{2-[(2S,6S)-6-methyl-1-(phenylsulfonyl)piperazin-2-yl]ethyl}phenyl)-β-(6-methoxypyridin-3-yl)-L-phenylalaninamide], the IC50 was 0.012 µM.

In the case of `COC(=O)N[C@H](C(=O)Nc1cccc(F)c1CC[C@H]1CNC[C@H](C)N1S(=O)(=O)c1ccccc1)[C@@H](c1ccc(Cl)cc1)c1ccc(OC)nc1` [Example 119, (βS)-4-chloro-N-(3-fluoro-2-{2-[(2S,6S)-6-methyl-1-(phenylsulfonyl)piperazin-2-yl]ethyl}phenyl)-Nα-(methoxycarbonyl)-β-(6-methoxypyridin-3-yl)-L-phenylalaninamide], the IC50 came to 0.0091 µM.

Regarding `COC(=O)N[C@H](C(=O)Nc1cccc(F)c1CC[C@H]1CNC[C@@H](C)N1S(=O)(=O)c1ccccc1)[C@@H](c1ccc(Cl)cc1)c1ccc(OC)nc1` [Example 120, (βS)-4-chloro-N-(3-fluoro-2-{2-[(2S,6R)-6-methyl-1-(phenylsulfonyl)piperazin-2-yl]ethyl}phenyl)-Nα-(methoxycarbonyl)-β-(6-methoxypyridin-3-yl)-L-phenylalaninamide], the IC50 turned out to be 0.019 µM.

As for `C[C@H]1CNC[C@H](CCc2c(F)cccc2NC(=O)[C@@H](N)[C@@H](c2ccc(Cl)cc2)C2CCOCC2)N1S(C)(=O)=O` [Example 121, (βR)-4-chloro-N-(3-fluoro-2-{2-[(2S,6S)-6-methyl-1-(methylsulfonyl)piperazin-2-yl]ethyl}phenyl)-β-(tetrahydro-2H-pyran-4-yl)-L-phenylalaninamide], the IC50 was 0.072 µM.

The values above are taken from patent publication US9840478B2 (MERCK SHARP & DOHME CORP., priority 2013, dated 2017).
